# Data published in ChEMBL document CHEMBL5528063, “Antitrypanosomal Chloronitrobenzamides” (J Med Chem, 2024).
# Active and inactive are the calls of the source. No cut-off for these calls is given here.
# Experiments:
# [1] = Stability in mouse plasma assessed as half-life measured after 24 hrs by UPLC-MS analysis; format: ADME, cell-free
# [2] = Stability of compound in PBS at pH 3 assessed as half-life measured after 48 hrs by UPLC-MS analysis; format: physicochemical
# [3] = Permeability of compound at pH 7.4 incubated for 30 mins by PAMPA-GIT assay; format: ADME; details: read-out: permeability
# [4] = Metabolic stability in human liver microsomes assessed as intrinsic clearance at 20 uM incubated for 2 hrs by UPLC-MS analysis; format: ADME, Microsome; details: read-out: CLH
# [5] = Stability of compound in PBS at pH 7.4 assessed as half-life measured after 48 hrs by UPLC-MS analysis; format: physicochemical
# [6] = Cmax in Sprague-Dawley rat at 6 mg/kg, iv measured after 45.3 hrs by LC/MS analysis; format: ADME, organism-based; details: in vivo
# [7] = Protein binding in rat plasma at 20 uM incubated for 18 hrs by UPLC-MS analysis; format: ADME, cell-free; details: read-out: PPB (converted)
# [8] = tested on: Trypanosoma brucei brucei; assay: Antitrypanosomal activity against Trypanosoma brucei brucei 427 assessed as inhibition of parasite proliferation incubated for 48 hrs by CellTiter-Glo luminescent assay; format: functional, organism-based; details: Trypanosoma brucei, 427, 48 h
# [9] = tested on: Trypanosoma brucei brucei; assay: Antitrypanosomal activity against Trypanosoma brucei brucei 427 assessed as reduction in parasitemia in presence of fetal bovine serum; format: functional, organism-based
# [10] = Metabolic stability in […] mouse liver microsomes assessed as intrinsic clearance at 20 uM measured after 2 hrs by UPLC-MS analysis; format: ADME, Microsome; details: read-out: CLH
# [11] = Stability in rat plasma assessed as half-life measured after 24 hrs by UPLC-MS analysis; format: ADME, cell-free
# [12] = Clearance in C57BL/6 mouse at 50 mg/kg, po measured after 144 hrs by LC-MS/MS analysis; format: ADME, organism-based; details: in vivo
# [13] = Oral bioavailability in Sprague-Dawley rat at 50 mg/kg measured after 45.3 hrs by LC/MS analysis; format: ADME, organism-based; details: in vivo
# [14] = Metabolic stability in rat liver microsomes assessed as half-life at 20 uM; format: ADME, Microsome
# [15] = Drug concentration in C57BL/6 mouse brain at 50 mg/kg, po measured after 144 hrs by LC-MS/MS analysis; format: ADME, organism-based; details: read-out: Ct
# [16] = tested on: Trypanosoma vivax; assay: Antitrypanosomal activity against Trypanosoma vivax STIB 719/ ILRAD 560 assessed as inhibition of parasite proliferation incubated for 45 hrs by resazurin dye based microplate fluorometric analysis; format: functional, organism-based; details: STIB 719/ ILRAD 560, 45 h
# [17] = Metabolic stability in human liver microsomes assessed as half-life at 20 uM incubated for 2 hrs by UPLC-MS analysis; format: ADME, Microsome
# [18] = Protein binding in human plasma at 20 uM incubated for 18 hrs by UPLC-MS analysis; format: ADME, cell-free; details: read-out: PPB (converted)
# [19] = tested on: Trypanosoma congolense; assay: Antitrypanosomal activity against Trypanosoma congolense IL3000 assessed as inhibition of parasite proliferation incubated for 69 hrs by resazurin dye based microplate fluorometric analysis; format: functional, organism-based; details: IL3000, 69 h
# [20] = Cmax in C57BL/6 mouse at 50 mg/kg, po measured after 144 hrs by LC-MS/MS analysis; format: ADME, organism-based; details: in vivo
# [21] = Cytotoxicity against human BJ cells assessed as inhibition of cell growth incubated for 72 hrs by CellTiter-Glo luminescence assay; format: toxicity, cell-based
# [22] = tested on: Trypanosoma congolense; assay: Antitrypanosomal activity against Trypanosoma congolense STIB 736/IL-1180 infected in NMRI mouse model assessed as survival at 50 mg/kg, ip administrated […] starting from day 7 to day 10 post infection (reference value: 11 day); format: functional
# [23] = Cytotoxicity against HEK293 cells assessed as inhibition of cell growth incubated for 72 hrs by CellTiter-Glo luminescence assay; format: toxicity, cell-based; details: human
# [24] = Toxicity in Sprague-Dawley rat at 50 mg/kg, po measured after 45.3 hrs; format: organism-based; details: in vivo
# [25] = Elimination half-life in C57BL/6 mouse at 50 mg/kg, po measured after 144 hrs by LC-MS/MS analysis; format: ADME, organism-based; details: in vivo, read-out: beta t1/2 (converted)
# [26] = Metabolic stability in […] mouse liver microsomes assessed as half-life at 20 uM measured after 2 hrs by UPLC-MS analysis; format: ADME, Microsome
# [27] = Efflux ratio of apparent permeability from basolateral to apical side over apical to basolateral side in human Caco-2 cells incubated for 2 hrs by UPLC/MS analysis; format: ADME, cell-based
# [28] = Protein binding in mouse plasma at 20 uM incubated for 18 hrs by UPLC-MS analysis; format: ADME, cell-free; details: read-out: PPB (converted)
# [29] = Aqueous solubility of compound in 1-propanol at pH 7.4 incubated for 18 hrs by UV spectrum analysis; format: physicochemical; details: 1-propanol (aqueous, pH 7.4), pH 7.4
# [30] = tested on: Trypanosoma brucei brucei; assay: Trypanocidal activity against Trypanosoma brucei brucei 427 assessed as reduction in parasitemia at 0.1 to 1.5 uM incubated for 4 days in presence of nifurtimox by CellTiter-Glo assay; format: functional, organism-based; details: dose 0.1-1.5 µM, time 4.0 day
# [31] = tested on: Raji; assay: Cytotoxicity against human Raji cells assessed as inhibition of cell growth incubated for 72 hrs by CellTiter-Glo luminescence assay; format: functional, cell-based
# [32] = tested on: Trypanosoma brucei rhodesiense; assay: Antitrypanosomal activity against Trypanosoma brucei rhodesiense STIB900 infected in NMRI mouse model assessed as survival at 50 mg/kg, po pre-infected for 3 days followed by compound administration for 4 days and measured 60 days post infection (reference value: 7 day); format: functional; details: time 57 day
# [33] = Metabolic stability in rat liver microsomes assessed as intrinsic clearance at 20 uM; format: ADME, Microsome; details: read-out: CLH
# [34] = Stability in human plasma assessed as half-life measured after 24 hrs by UPLC-MS analysis; format: ADME, cell-free
# [35] = tested on: Trypanosoma brucei brucei; assay: Trypanocidal activity against Trypanosoma brucei brucei 427 assessed as reduction in parasitemia at 8 uM incubated for 4 days by clonal dilution based CellTiter-Glo assay; format: functional, organism-based; details: time 4.0 day
# [36] = Stability of compound in PBS at pH 5 assessed as half-life measured after 48 hrs by UPLC-MS analysis; format: physicochemical
# [37] = tested on: HepG2; assay: Cytotoxicity against human HepG2 cells assessed as inhibition of cell growth incubated for 72 hrs by CellTiter-Glo luminescence assay; format: functional, cell-based; details: HepG2, 72 h
# [38] = Tmax in C57BL/6 mouse at 50 mg/kg, po measured after 144 hrs by LC-MS/MS analysis; format: ADME, organism-based; details: in vivo
# [39] = AUC in C57BL/6 mouse at 50 mg/kg, po measured after 144 hrs by LC-MS/MS analysis; format: ADME, organism-based; details: in vivo
# [40] = Stability of compound in SGF assessed as half-life measured after 24 hrs by UPLC-MS analysis; format: ADME
compound,measurement,setting,value
Cc1ccc(-c2nc3ccccc3s2)cc1NC(=O)c1cc([N+](=O)[O-])c(N2CCN(C)CC2)cc1Cl,half-life,[1],> 24 h
same,half-life,[2],> 24 h
same,Papp at 0.5 h,[3],2370 nm/s
same,CLint scaled at 20 µM,[4],< 0.36 L/h/kg
same,half-life,[5],5.7 h
same,Cmax,[6],> 10 µM
same,"fraction unbound at 18 h, 20 µM",[7],0.007
same,EC50,[8],1 nM
same,Activity,[9],Active
same,CLint scaled at 20 µM,[10],< 0.84 L/h/kg
same,half-life,[11],> 24 h
same,CL/F,[12],0.357 mL/min
same,bioavailability,[13],14%
same,half-life at 20 µM,[14],> 4 h
same,concentration at 144 h,[15],8 µM
same,EC50,[16],6 nM
same,half-life at 20 µM,[17],> 4 h
same,"fraction unbound at 18 h, 20 µM",[18],0.002
same,EC50,[19],3 nM
same,Cmax,[20],6.5 µM
same,EC50 at 72 h,[21],> 25000 nM
same,Survival,[22],21 days
same,EC50 at 72 h,[23],> 25000 nM
same,Activity,[24],Non-Toxic
same,half-life,[25],7 h
same,half-life at 20 µM,[26],> 4 h
same,efflux ratio at 2 h,[27],1.92
same,"fraction unbound at 18 h, 20 µM",[28],0.009
same,solubility at 18 h,[29],≤ 0.3 µM
same,Activity,[30],Active
same,EC50,[31],> 25000 nM
same,Survival,[32],14 days
same,CLint scaled at 20 µM,[33],< 0.72 L/h/kg
same,half-life,[34],> 24 h
same,Activity,[35],inactive
same,half-life,[36],> 24 h
same,EC50,[37],> 25000 nM
same,Tmax,[38],4 h
same,AUC at 144 h,[39],83 µM·h
same,half-life,[40],> 24 h
